US20090170867A1, “TRPV1 ANTAGONISTS INCLUDING SULFONAMIDE SUBSTITUENT AND USES THEREOF” (Shionogi & Co., Ltd., priority 2007, published 2009)
≈ marks a conversion by molar mass, not a printed value. Like-named read-outs stand apart in the source and are kept apart here.

Legend:
Aqueous solubility = type: physicochemical; settings: aqueous solution
human TRPV1 [1] = biological target: T1, human TRPV1 (Homo sapiens, UniProt Q8NER1); assay: Capsaicin-based assay, Protocol 2 (TRPV1/CHO cells, Fluo-4, FLIPR); type: cell-based; settings: capsaicin 100 nM final, mean ± SEM, number of trials in parentheses, read-out: TRPV1 IC50 Potency, Human Capsaicin CHO (hCAP-CHO)
T1 construct: using primers designed surrounding the complete hTRPV1 open reading frame; expressed in transfected cells; host or cells: CHO-K1 cells stably transfected with pcDNA3.1(-)-hVR1 plasmid
Method in brief: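 CHO cells stably transfected with human TRPV1 cDNA, kept under G418 selection, loaded with 3 μM Fluo-4 for 1 h. Calcium fluorescence followed on FLIPR after a 15 s baseline against capsaicin challenge; compounds at final 100 μM to 1.5625 μM, curves fitted over the full time course.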

human TRPV1 [2] = biological target: T1, human TRPV1; assay: pH-based assay, Protocol 2 (TRPV1/CHO cells, Fura-2 AM, FDSS-3000, pH 5.0-5.1); type: cell-based; settings: H2SO4 agonist, mean ± SEM, number of trials in parentheses, read-out: TRPV1 IC50 Potency, Human pH CHO (hpH-CHO)
[3] = pH 1.2, simulated gastric fluid, read-out: aqueous solubility at pH 1.2
[4] = pH 6.8, aqueous buffer, read-out: aqueous solubility at pH 6.8

T1 sequence (Q8NER1 whole entry): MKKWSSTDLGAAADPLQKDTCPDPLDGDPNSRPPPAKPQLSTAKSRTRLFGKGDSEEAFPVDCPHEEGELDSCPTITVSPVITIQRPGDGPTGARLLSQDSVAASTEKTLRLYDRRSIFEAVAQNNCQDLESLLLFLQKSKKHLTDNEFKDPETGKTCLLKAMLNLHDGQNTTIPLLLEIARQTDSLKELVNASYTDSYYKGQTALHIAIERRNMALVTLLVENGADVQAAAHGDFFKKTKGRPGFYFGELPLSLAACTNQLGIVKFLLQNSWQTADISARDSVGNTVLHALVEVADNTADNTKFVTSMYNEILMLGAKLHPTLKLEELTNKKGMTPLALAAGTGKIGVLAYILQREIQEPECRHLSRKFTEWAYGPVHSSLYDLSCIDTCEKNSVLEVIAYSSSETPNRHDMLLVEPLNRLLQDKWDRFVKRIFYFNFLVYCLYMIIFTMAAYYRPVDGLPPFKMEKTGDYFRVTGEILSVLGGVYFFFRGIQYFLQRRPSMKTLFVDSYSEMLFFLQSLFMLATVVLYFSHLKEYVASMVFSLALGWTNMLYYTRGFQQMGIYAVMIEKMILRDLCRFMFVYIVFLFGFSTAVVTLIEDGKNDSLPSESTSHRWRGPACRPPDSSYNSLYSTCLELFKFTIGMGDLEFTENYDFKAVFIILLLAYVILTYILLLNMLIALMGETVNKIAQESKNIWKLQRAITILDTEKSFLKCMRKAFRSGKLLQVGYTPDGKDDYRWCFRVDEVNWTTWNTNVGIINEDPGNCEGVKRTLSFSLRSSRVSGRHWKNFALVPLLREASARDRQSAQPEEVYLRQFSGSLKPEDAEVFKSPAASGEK

SMILES	solubility (Aqueous solubility; [3])	solubility (Aqueous solubility; [4])	IC50 (human TRPV1 [1])	IC50 (human TRPV1 [2])
O=C(Nc1ccc(C(F)(F)F)c(Cl)c1)N1CC=C(c2ncc([C@H](O)CO)cc2F)CC1 [Compound U3]	> 50 µM	26.4 µM (≈ 12.1 µg/mL)	0.0279 ± 0.0099 µM	0.0135 µM
O=C(Nc1ccc(C(F)(F)F)cc1)N1CC=C(c2ncc([C@H](O)CO)cc2F)CC1 [Compound U1]	> 50 µM	> 50 µM	0.0613 ± 0.0225 µM	0.0147 ± 0.0033 µM
CC(O)c1cnc(C2=CCN(C(=O)Nc3ccc(C(F)(F)F)cc3)CC2)c(Cl)c1 (stereo not drawn) [Compound G2]	> 50 µM	38.2 µM (≈ 16.3 µg/mL)	0.112 ± 0.0223 µM	0.0848 ± 0.0088 µM
